Source: patent US20180042232A1, “Methods and Compositions for Reducing Anguina Nematode Infestation and Improving Grass Quality” (Bayer CropScience LP, priority 2015, published 2018)

Key:
Assay type in all cases: in vivo
[1] = tested on: Anguina pacificae nematodes; assay: Nematode count in soil of a treated Poa annua green, Pebble Beach; conditions: 87 DAA, untreated 212.5
Excerpt: FIG. 1 sets forth comparative numerical representations of Anguina pacificae nematodes found in 100 cc untreated soil, 100 cc soil treated with azadirachtin, and 100 cc soil treated with fluopyram at defined concentrations and doses. In the legend provided, each letter (e.g., “A,” “B,” “C,” etc.) represents a two week interval (e.g., AC=4-week interval).
Example 1 describes effects of various treatments on nematode population on a Poa annua green at Pebble Beach.
(§1) Trials are kept free of any pests that can interfere or impact and nematode evaluations and yields.
(§2) A Poa annua green is treated by spraying the active ingredient on foliage and waiting at least three hours before irrigating into the thatch/mat layer for upward movement into the stem region (just above the crown) where the nematode resides. One or more applications can be made in 2-8 weeks. The interval may be longer if control has not declined, or treatments are to be applied in different seasons (e.g., spring and fall).
(§3) In FIG. 1, a Poa annua green is evaluated and counts of nematodes per 100 cc soil are taken 87 days after anthesis (DAA). The first column represents nematode count at 87 DAA in an untreated sample of turfgrass. The second column represents nematode count at 87 DAA in turfgrass treated with 250 g ai/ha fluopyram at 4-week intervals. The third column represents nematode count at 87 DAA in turfgrass treated with 500 g ai/ha fluopyram at 4-week intervals. The fourth column represents nematode count at 87 DAA in turfgrass treated with 286 g ai/ha azadirachtin applied bi-weekly to the soil. FIG. 1 corresponds to Table 1, below.

Poa annua turfgrass [2] = assay: Turf quality evaluation of a treated Poa annua green, Pebble Beach; conditions: 96 DAA, 1-9 scale (9 = best, 6 = acceptable), untreated 4.8
Description: FIG. 2 sets forth comparative turf quality evaluations of Poa annua turfgrass treated with fluopyram at defined concentrations and doses. In the legend provided, each letter (e.g., “A,” “B,” “C,” etc.) represents a two week interval (e.g., AC=4-week interval).
as §2
as §3, with “FIG. 2, turf quality of” for “FIG. 1,”, “evaluated 96 DAA.” for “evaluated and counts of nematodes per 100 cc soil are taken 87 days after anthesis (DAA).”, “represents turf quality” for “represents nematode count”, “at 96” for “at 87”, “FIG. 2” for “FIG. 1”, “Table 2,” for “Table 1,”

Poa annua turfgrass [3] = assay: Crop Circle ACS-430 canopy sensor vegetation index (RVI, NDVI) of a treated Poa annua green, Pebble Beach; conditions: for NDVI (Normalized Difference Vegetation Index) / RVI (Ratio Vegetation Index): Pebble Beach, 96 DAA; for NDVI (Normalized Difference Vegetation Index): untreated 0.7064; for RVI (Ratio Vegetation Index): untreated 5.830
Excerpt: FIG. 3 sets forth comparative RVI measurements of Poa annua turfgrass treated with fluopyram at defined concentrations and doses. In the legend provided, each letter (e.g., “A,” “B,” “C,” etc.) represents a two week interval (e.g., AC=4-week interval).
FIG. 4 sets forth comparative NDVI measurements of Poa annua turfgrass treated with fluopyram at defined concentrations and doses. In the legend provided, each letter (e.g., “A,” “B,” “C,” etc.) represents a two week interval (e.g., AC=4-week interval).
as §2
A Crop Circle ACS-430 active crop canopy sensor (Holland Scientific, Inc.) provided classic vegetation index data (RVI=Ratio Vegetation Indices; NDVI=Normalized difference vegetative index) from the turf canopy. Unlike passive radiometric light sensors, the Crop Circle ACS-430 is not limited by ambient lighting conditions and measurements were made by day due to its unique light source technology. Information produced by the sensor can be utilized to quantify the impact of nutrients, water, disease or other growing conditions on the turf plant. The ratio vegetation index (RVI) is formed by dividing the near infra-red irradiance by the red irradiance. Study plots were scanned at intervals to collect this quantitative data. The normalized difference vegetative index (NDVI) is calculated as follows: […]
where VIS and NIR stand for the spectral reflectance measurements acquired in the visible (red) and near-infrared regions, respectively.
as §3, with “FIG. 3, RVI of” for “FIG. 1,”, “evaluated 96 DAA.” for “evaluated and counts of nematodes per 100 cc soil are taken 87 days after anthesis (DAA).”, “represents RVI” for “represents nematode count”, “at 96” for “at 87”, “FIG. 3” for “FIG. 1”, “Table 3,” for “Table 1,”
as §3, with “FIG. 4, NDVI of” for “FIG. 1,”, “evaluated 96 DAA.” for “evaluated and counts of nematodes per 100 cc soil are taken 87 days after anthesis (DAA).”, “represents NDVI” for “represents nematode count”, “at 96” for “at 87”, “FIG. 4” for “FIG. 1”, “Table 4,” for “Table 1,”

[4] = tested on: Anguina pacificae nematode galls; assay: Nematode gall count of a treated Poa annua green, Pebble Beach
Excerpt: FIG. 5 sets forth comparative numerical representations of Anguina pacificae nematodes galls found in 100 cc untreated soil, 100 cc soil treated with azadirachtin, and 100 cc soil treated with fluopyram at defined concentrations and doses. In the legend provided, each letter (e.g., “A,” “B,” “C,” etc.) represents a two week interval (e.g., AC=4-week interval).
Example 2 describes effects of various treatments on nematode population on a Poa annua green at Pebble Beach.
as §1, §2
In FIG. 5, a Poa annua green is evaluated and counts of nematode galls per 100 cc soil are taken 87 and 139 days after anthesis (DAA). The first and fifth columns represent nematode gall count at 87 and 139 DAA, respectively, in an untreated sample of turfgrass. The second and sixth columns represent nematode gall count at 87 and 139 DAA, respectively, in turfgrass treated with 250 g ai/ha fluopyram at 4-week intervals. The third and seventh columns represent nematode gall count at 87 and 139 DAA, respectively, in turfgrass treated with 500 g ai/ha fluopyram at 4-week intervals. The fourth and eighth columns represent nematode gall count at 87 and 139 DAA, respectively, in turfgrass treated with 286 g ai/ha azadirachtin applied bi-weekly to the soil. FIG. 5 corresponds to Table 5 (87 DAA) and Table 6 (139 DAA), below.

[5] = tested on: Anguina pacificae nematode galls; assay: Nematode gall count of a treated Poa annua green, The Links at Spanish Bay; conditions: 171 DAA, untreated 22.8
Excerpt: FIG. 6 sets forth comparative numerical representations of Anguina pacificae nematode galls found in 100 cc untreated soil, 100 cc soil treated with azadirachtin+cimectacarb, and 100 cc soil treated with fluopyram at defined concentrations and doses. In the legend provided, each letter (e.g., “A,” “B,” “C,” etc.) represents a two week interval (e.g., AC=4-week interval).
Example 3 describes effects of various treatments on nematode population on a Poa annua green at The Links at Spanish Bay.
as §1, §2
In FIG. 6, a Poa annua green is evaluated and counts of nematode galls per 100 cc soil are taken 171 days after anthesis (DAA). The first column represents nematode count at 171 DAA in an untreated sample of turfgrass. The second column represents nematode count at 171 DAA in turfgrass treated with 250 g ai/ha fluopyram at 4-week intervals. […]

Poa annua turfgrass [6] = assay: Turf quality evaluation of a treated Poa annua green, The Links at Spanish Bay; conditions: 179 DAA, 0-10 scale (10 = best), untreated 5.5
Description: FIG. 7 sets forth comparative turf quality evaluations of Poa annua turfgrass treated with fluopyram at defined concentrations and doses. In the legend provided, each letter (e.g., “A,” “B,” “C,” etc.) represents a two week interval (e.g., AC=4-week interval).
as §2
as §3, with “FIG. 7, turf quality of” for “FIG. 1,”, “evaluated 179 DAA.” for “evaluated and counts of nematodes per 100 cc soil are taken 87 days after anthesis (DAA).”, “represents turf quality” for “represents nematode count”, “at 179” for “at 87”, “FIG. 7” for “FIG. 1”, “Table 8,” for “Table 1,”

[7] = 286 g ai/ha applied bi-weekly to the soil
[8] = 250 g ai/ha at 4-week intervals
[9] = 500 g ai/ha at 4-week intervals

C/C=C(\C)C(=O)O[C@H]1C[C@@H](OC(C)=O)[C@@]2(C(=O)OC)CO[C@H]3[C@@H](O)[C@@](C)([C@]45O[C@@]4(C)[C@H]4C[C@@H]5O[C@@H]5OC=C[C@@]54O)[C@H]4[C@]1(CO[C@]4(O)C(=O)OC)[C@@H]32 [azadirachtin]
Nematodes/100 cc soil [1, 7]: 270 nematodes/100 cc soil | Turf Quality (Poa annua turfgrass [2]; [7]): 4.8 | NDVI (Normalized Difference Vegetation Index) (Poa annua turfgrass [3]; [7]): 0.6865 | RVI (Ratio Vegetation Index) (Poa annua turfgrass [3]; [7]): 5.425 | Nematode galls/100 cc soil ([4]; 286 g ai/ha applied bi-weekly to the soil, 87 DAA, untreated 31): 34 galls/100 cc soil | Nematode galls/100 cc soil ([4]; 286 g ai/ha applied bi-weekly to the soil, 139 DAA, untreated 19): 16 galls/100 cc soil

O=C(NCCc1ncc(C(F)(F)F)cc1Cl)c1ccccc1C(F)(F)F [fluopyram, N-{2-[3-chloro-5-(trifluoromethyl)-2-pyridinyl]ethyl}-2-(trifluoromethyl) benzamide]
Nematodes/100 cc soil [1, 8]: 17.5 nematodes/100 cc soil | Nematodes/100 cc soil [1, 9]: 17.5 nematodes/100 cc soil | Turf Quality (Poa annua turfgrass [2]; [8]): 7.4 | Turf Quality (Poa annua turfgrass [2]; [9]): 8.1 | NDVI (Normalized Difference Vegetation Index) (Poa annua turfgrass [3]; [8]): 0.7634 | RVI (Ratio Vegetation Index) (Poa annua turfgrass [3]; [8]): 7.475 | NDVI (Normalized Difference Vegetation Index) (Poa annua turfgrass [3]; [9]): 0.7908 | RVI (Ratio Vegetation Index) (Poa annua turfgrass [3]; [9]): 8.598 | Vegetative index (RVI and NDVI) compared to the untreated control (Poa annua turfgrass [3]; averaged over the course of the study, Poa annua turfgrass): positively enhanced vegetative index | Nematode galls/100 cc soil ([4]; 250 g ai/ha at 4-week intervals, 87 DAA, untreated 31): 6 galls/100 cc soil | Nematode galls/100 cc soil ([4]; 250 g ai/ha at 4-week intervals, 139 DAA, untreated 19): 2 galls/100 cc soil | Nematode galls/100 cc soil ([4]; 500 g ai/ha at 4-week intervals, 87 DAA, untreated 31): 3 galls/100 cc soil | Nematode galls/100 cc soil ([4]; 500 g ai/ha at 4-week intervals, 139 DAA, untreated 19): 0.5 galls/100 cc soil | Nematode galls/100 cc soil [5, 8]: 4.3 galls/100 cc soil | Nematode galls/100 cc soil [5, 9]: 1.8 galls/100 cc soil | Turf Quality (Poa annua turfgrass [6]; [8]): 6.0 | Turf Quality (Poa annua turfgrass [6]; [9]): 8.5
